Laboratory results reported in US5672715A, “Herbicidal substituted 3-aryl-pyrazoles” (Monsanto Company, priority 1995, dated 1997).
Where two headings read alike, the source gives them in different places.

Columns and labels:
Format in all cases: in vivo
Morning Glory [1] = assay: pre-emergence herbicide test; conditions: Ipomoea, pre-emergence, read-out: % plant inhibition
How it was run: (§1)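 Soil-applied pre-emergence screen: compound added to cover topsoil over sown seeds, pans held on greenhouse bench with subirrigation, % inhibition scored ~2 weeks later.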

Soybean = assay: pre-emergence herbicide test; conditions: Glycine max, pre-emergence, read-out: % plant inhibition
How it was run: as §1

Barnyardgrass = assay: pre-emergence herbicide test; conditions: Echinochloa crus-galli, pre-emergence, read-out: % plant inhibition
How it was run: as §1

Yellow Nutsedge [2] = assay: pre-emergence herbicide test; conditions: Cyperus, read-out: % plant inhibition
How it was run: as §1

Rice = assay: pre-emergence herbicide test; conditions: Oryza sativa, read-out: % plant inhibition
How it was run: as §1

Velvetleaf [3] = assay: pre-emergence herbicide test; conditions: Abutilon theophrasti, pre-emergence, read-out: % plant inhibition
How it was run: as §1

Corn [4] = assay: pre-emergence herbicide test; conditions: Zea mays, pre-emergence, read-out: % plant inhibition
How it was run: as §1

Yellow Foxtail [5] = assay: pre-emergence herbicide test; conditions: Setaria, read-out: % plant inhibition
How it was run: as §1

Cocklebur = assay: pre-emergence herbicide test; conditions: Xanthium strumarium, pre-emergence, read-out: % plant inhibition
How it was run: as §1

Blackgrass = assay: post-emergence herbicide test; conditions: Alopecurus myosuroides, post-emergence, read-out: % plant inhibition; for inhibition at 200.072 g/ha: 0.1785 lb/A; for inhibition at 1000.92 g/ha: 0.893 lb/A; for inhibition at 5043.82 g/ha: 4.5 lb/A
How it was run: (§2)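 Soil pans seeded, covered and leveled; grown in greenhouse 2–3 weeks. Sprayed individually (atomizer, 10 psig, 200 gallons/acre). Percent inhibition recorded.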

Common Chickweed = assay: post-emergence herbicide test; conditions: post-emergence, read-out: % plant inhibition
How it was run: as §2

Morning Glory [6] = assay: post-emergence herbicide test; conditions: Ipomoea, post-emergence, read-out: % plant inhibition
How it was run: as §2

Yellow Nutsedge [7] = assay: post-emergence herbicide test; conditions: Cyperus, read-out: % plant inhibition
How it was run: as §2

Velvetleaf [8] = assay: post-emergence herbicide test; conditions: Abutilon theophrasti, post-emergence, read-out: % plant inhibition
How it was run: as §2

Corn [9] = assay: post-emergence herbicide test; conditions: Zea mays, post-emergence, read-out: % plant inhibition
How it was run: as §2

Yellow Foxtail [10] = assay: post-emergence herbicide test; conditions: Setaria, read-out: % plant inhibition
How it was run: as §2

Cc1c(-c2cc(F)ccc2F)nn(C)c1C(F)(F)F [Compound 1, 3-(2,5-Difluorophenyl)-1,4-dimethyl-5-(trifluoromethyl)-1H-pyrazole]
inhibition at 1000.92 g/ha (Morning Glory [1]; 0.893 lb/A): 0%
inhibition at 5043.82 g/ha (Morning Glory [1]; 4.5 lb/A): 35%
inhibition at 1000.92 g/ha (Soybean; 0.893 lb/A): 0%
inhibition at 5043.82 g/ha (Soybean; 4.5 lb/A): 0%
inhibition at 1000.92 g/ha (Barnyardgrass; 0.893 lb/A): 0%
inhibition at 5043.82 g/ha (Barnyardgrass; 4.5 lb/A): 50%
inhibition at 1000.92 g/ha (Yellow Nutsedge [2]; 0.893 lb/A): 0%
inhibition at 5043.82 g/ha (Yellow Nutsedge [2]; 4.5 lb/A): 45%
inhibition at 1000.92 g/ha (Rice; 0.893 lb/A): 25%
inhibition at 5043.82 g/ha (Rice; 4.5 lb/A): 0%
inhibition at 1000.92 g/ha (Velvetleaf [3]; 0.893 lb/A): 0%
inhibition at 5043.82 g/ha (Velvetleaf [3]; 4.5 lb/A): 65%
inhibition at 1000.92 g/ha (Corn [4]; 0.893 lb/A): 0%
inhibition at 5043.82 g/ha (Corn [4]; 4.5 lb/A): 10%
inhibition at 1000.92 g/ha (Yellow Foxtail [5]; 0.893 lb/A): 0%
inhibition at 5043.82 g/ha (Yellow Foxtail [5]; 4.5 lb/A): 35%
inhibition at 1000.92 g/ha (Cocklebur; 0.893 lb/A): 0%
inhibition at 5043.82 g/ha (Cocklebur; 4.5 lb/A): 0%
inhibition at 200.072 g/ha (Blackgrass; Table 4a): 0%
inhibition at 200.072 g/ha (Blackgrass; Table 5a): 0%
inhibition at 1000.92 g/ha (Blackgrass; Table 4a): 0%
inhibition at 1000.92 g/ha (Blackgrass; Table 5a): 0%
inhibition at 5043.82 g/ha (Blackgrass; Table 4a): 0%
inhibition at 5043.82 g/ha (Blackgrass; Table 5a): 35%
inhibition at 200.072 g/ha (Common Chickweed; 0.1785 lb/A): 0%
inhibition at 1000.92 g/ha (Common Chickweed; 0.893 lb/A): 0%
inhibition at 5043.82 g/ha (Common Chickweed; 4.5 lb/A): 40%
inhibition at 200.072 g/ha (Morning Glory [6]; 0.1785 lb/A): 0%
inhibition at 1000.92 g/ha (Morning Glory [6]; 0.893 lb/A): 0%
inhibition at 5043.82 g/ha (Morning Glory [6]; 4.5 lb/A): 15%
inhibition at 200.072 g/ha (Yellow Nutsedge [7]; 0.1785 lb/A): 0%
inhibition at 1000.92 g/ha (Yellow Nutsedge [7]; 0.893 lb/A): 0%
inhibition at 5043.82 g/ha (Yellow Nutsedge [7]; 4.5 lb/A): 30%
inhibition at 200.072 g/ha (Velvetleaf [8]; 0.1785 lb/A): 0%
inhibition at 1000.92 g/ha (Velvetleaf [8]; 0.893 lb/A): 0%
inhibition at 5043.82 g/ha (Velvetleaf [8]; 4.5 lb/A): 20%
inhibition at 200.072 g/ha (Corn [9]; 0.1785 lb/A): 0%
inhibition at 1000.92 g/ha (Corn [9]; 0.893 lb/A): 0%
inhibition at 5043.82 g/ha (Corn [9]; 4.5 lb/A): 40%
inhibition at 200.072 g/ha (Yellow Foxtail [10]; 0.1785 lb/A): 0%
inhibition at 1000.92 g/ha (Yellow Foxtail [10]; 0.893 lb/A): 0%
inhibition at 5043.82 g/ha (Yellow Foxtail [10]; 4.5 lb/A): 50%
